The values below come from BindingDB's records for patent US9539260 (Novartis AG, 2017).

For assay [1], the target named is Phosphatidylinositol 4,5-bisphosphate 3-kinase catalytic subunit alpha isoform (Homo sapiens, UniProt P42336). Kind of assay: Inhibition Assay. The settings on record: 25 °C. The method, then: (§1) The final concentrations of ATP and phosphatidyl inositol in the assay are 5 μM and 6 μg/mL, respectively. […] The final concentrations of ATP and phosphatidyl inositol (PI) in the assay are 1 μM and 10 μg/mL, respectively.

For assay [2], the target named is T1, Phosphatidylinositol 4,5-bisphosphate 3-kinase catalytic subunit delta isoform (Homo sapiens, UniProt O00329).
T1 sequence (O00329 whole entry): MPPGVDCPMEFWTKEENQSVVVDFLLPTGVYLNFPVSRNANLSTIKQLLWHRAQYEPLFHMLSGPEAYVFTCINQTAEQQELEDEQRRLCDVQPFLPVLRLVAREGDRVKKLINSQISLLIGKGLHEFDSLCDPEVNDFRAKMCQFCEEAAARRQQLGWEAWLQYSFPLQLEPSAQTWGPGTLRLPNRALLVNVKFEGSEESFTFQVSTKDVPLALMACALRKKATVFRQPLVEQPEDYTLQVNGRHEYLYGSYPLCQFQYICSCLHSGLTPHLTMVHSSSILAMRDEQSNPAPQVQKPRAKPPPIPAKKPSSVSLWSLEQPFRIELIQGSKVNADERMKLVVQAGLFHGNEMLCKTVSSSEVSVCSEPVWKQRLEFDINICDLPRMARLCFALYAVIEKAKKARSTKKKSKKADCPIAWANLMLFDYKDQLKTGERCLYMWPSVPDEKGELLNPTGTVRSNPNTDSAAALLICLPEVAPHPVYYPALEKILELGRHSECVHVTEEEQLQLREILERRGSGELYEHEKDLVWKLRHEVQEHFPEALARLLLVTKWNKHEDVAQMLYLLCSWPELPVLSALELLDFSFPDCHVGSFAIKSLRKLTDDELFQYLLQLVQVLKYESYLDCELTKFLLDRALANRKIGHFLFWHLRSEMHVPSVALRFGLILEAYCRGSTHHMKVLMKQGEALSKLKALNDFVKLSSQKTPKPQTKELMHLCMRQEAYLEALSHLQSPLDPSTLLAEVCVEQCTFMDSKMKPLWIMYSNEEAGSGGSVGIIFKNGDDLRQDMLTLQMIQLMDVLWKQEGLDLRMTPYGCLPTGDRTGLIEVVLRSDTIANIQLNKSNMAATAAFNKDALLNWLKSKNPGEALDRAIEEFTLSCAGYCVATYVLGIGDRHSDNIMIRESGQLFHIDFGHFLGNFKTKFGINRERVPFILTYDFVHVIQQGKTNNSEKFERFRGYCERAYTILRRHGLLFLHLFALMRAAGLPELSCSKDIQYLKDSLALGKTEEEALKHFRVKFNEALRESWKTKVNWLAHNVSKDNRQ
Put plainly: Inhibition Assay. The settings on record: 25 °C. The method, then: as §1

Phosphatidylinositol 4,5-bisphosphate 3-kinase catalytic subunit alpha isoform, sequence (P42336 whole entry, canonical isoform): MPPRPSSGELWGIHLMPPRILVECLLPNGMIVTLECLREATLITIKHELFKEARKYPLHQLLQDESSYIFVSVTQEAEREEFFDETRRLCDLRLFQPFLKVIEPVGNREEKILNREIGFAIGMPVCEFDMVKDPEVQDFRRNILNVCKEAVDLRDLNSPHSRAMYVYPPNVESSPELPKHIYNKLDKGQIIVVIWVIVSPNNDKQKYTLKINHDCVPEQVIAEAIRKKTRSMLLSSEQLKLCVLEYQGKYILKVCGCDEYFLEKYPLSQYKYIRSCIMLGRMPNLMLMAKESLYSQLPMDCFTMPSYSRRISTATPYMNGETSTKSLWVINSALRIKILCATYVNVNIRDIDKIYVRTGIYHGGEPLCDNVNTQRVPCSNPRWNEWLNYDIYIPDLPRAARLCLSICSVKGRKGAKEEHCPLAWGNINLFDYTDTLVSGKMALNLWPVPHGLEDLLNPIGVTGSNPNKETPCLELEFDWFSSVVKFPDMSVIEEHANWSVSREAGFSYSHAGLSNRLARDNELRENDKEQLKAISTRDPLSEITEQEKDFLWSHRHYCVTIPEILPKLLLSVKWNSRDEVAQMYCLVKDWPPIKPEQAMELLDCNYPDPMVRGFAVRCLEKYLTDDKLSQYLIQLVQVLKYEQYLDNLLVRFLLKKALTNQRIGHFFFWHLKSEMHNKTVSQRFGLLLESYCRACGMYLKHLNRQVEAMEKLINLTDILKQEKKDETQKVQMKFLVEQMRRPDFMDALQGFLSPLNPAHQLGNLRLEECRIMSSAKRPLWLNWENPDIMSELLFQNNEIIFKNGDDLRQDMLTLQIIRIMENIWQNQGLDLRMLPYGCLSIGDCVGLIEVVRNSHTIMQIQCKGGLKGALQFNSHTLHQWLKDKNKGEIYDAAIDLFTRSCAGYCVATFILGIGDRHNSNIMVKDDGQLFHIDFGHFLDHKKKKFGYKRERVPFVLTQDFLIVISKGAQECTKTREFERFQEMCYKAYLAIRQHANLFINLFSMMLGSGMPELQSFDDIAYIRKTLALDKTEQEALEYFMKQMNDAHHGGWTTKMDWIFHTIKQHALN

Take `COc1ncc(N2CCOc3ccc(O[C@H]4CCN(C(=O)C5COCCO5)C4)cc32)cc1F` (some centres not stated) [US9539260, B115]: the IC50 in assay [1] was determined as 468 nM; in assay [2] it was 23 nM.
